Laboratory results published in US20250163104A1, “MACROCYCLIC IMMUNOMODULATORS” (priority 2021, published 2025).
Where a SMILES comes first, the peptide text is derived from it. Bridges are numbered along the chain shown (N, C = ends). [ ]: non-standard residue; d: D form. The star is where a group is joined. ξ: configuration not given here. Phe(4-COOH) = N[C@@H](Cc1ccc(C(=O)O)cc1)C(=O)O; Bip = N[C@@H](Cc1ccc(-c2ccccc2)cc1)C(=O)O; Phe(3-Me) = Cc1cccc(C[C@H](N)C(=O)O)c1; 4Pal = N[C@@H](Cc1ccncc1)C(=O)O; Aad = N[C@@H](CCCC(=O)O)C(=O)O; Cha = N[C@@H](CC1CCCCC1)C(=O)O; Thr(3ξ) = CC(O)[C@H](N)C(=O)O; Ahp(2) = CCCCC[C@H](N)C(=O)O; Carboxymethyl = O=C(O)C*; Orn = NCCC[C@H](N)C(=O)O; Dab = NCC[C@H](N)C(=O)O; Dap = NC[C@H](N)C(=O)O

What follows are compounds tested against T1, human PD-1 / PD-L1-Ig binding on Jurkat cell line over-expressing human PD-1 (Jurkat-PD-1) (Homo sapiens, UniProt Q15116) (assay: Jurkat-PD-1 Cell Binding High-Content Screening Assay (CBA)). Conditions: Jurkat-PD-1 cells, PE-labeled PD-L1-Ig 20 nM final; read-out: Jurkat HPD1_PDL1 IC50.
T1 construct: expressed in transfected cells; host or cells: Jurkat
T1 sequence (Q15116 25-288): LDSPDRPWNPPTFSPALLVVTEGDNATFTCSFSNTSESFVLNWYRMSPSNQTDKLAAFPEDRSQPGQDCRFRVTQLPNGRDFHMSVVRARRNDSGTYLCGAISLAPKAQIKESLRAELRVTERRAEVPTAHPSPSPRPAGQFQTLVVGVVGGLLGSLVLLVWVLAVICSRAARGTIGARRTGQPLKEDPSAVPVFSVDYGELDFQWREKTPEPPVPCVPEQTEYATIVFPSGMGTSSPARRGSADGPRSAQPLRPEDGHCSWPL
Assay type: cell-based
Method in brief: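 Read-out: high-content imaging of PE-tagged PD-L1-Ig bound to Jurkat cells overexpressing human PD-1, after fixation with 4% paraformaldehyde and Hoechst 33342 nuclear staining. Ligand was used at 20 nM final for 1 hour, after a 2 h compound exposure at 37° C in serum-containing DMEM.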

`CC(C)C[C@H]1NC(=O)[C@H](CCCN)NC(=O)[C@H](C(C)C)NC(=O)[C@H](Cc2ccc(-c3ccccc3)cc2)NC(=O)[C@H](C(C)C)NC(=O)[C@H](Cc2c[nH]c3ccccc23)NC(=O)[C@H](CC(=O)O)NC(=O)[C@H](Cc2ccc(O)cc2)NC(=O)[C@H](CCCNC(=N)N)NC(=O)CSC[C@@H](C(=O)N[C@@H](C)C(N)=O)NC(=O)[C@H](C(C)O)NC(=O)[C@H](C(C)C)NC(=O)[C@H](CC2CCCCC2)NC(=O)[C@H](CCN)NC1=O` (stereo partly drawn) [Compound 2524] ({CH2CO}-RYDWV[Bip]V[Orn][dL][Dab][Cha]V[Thr(3ξ)]CA-NH2; thioether N-14) was tested. Which IC50 did it give?
The IC50 was 12.2 nM.

Which IC50 does the source give for `CC(C)C[C@H]1NC(=O)[C@H](CCCN)NC(=O)[C@H](C(C)C)NC(=O)[C@H](Cc2ccc(-c3ccccc3)cc2)NC(=O)[C@H](C(C)C)NC(=O)[C@H](Cc2c[nH]c3ccccc23)NC(=O)[C@H](CC(=O)O)NC(=O)[C@H](Cc2ccc(O)cc2)NC(=O)[C@H](CCC(N)=O)NC(=O)CSC[C@@H](C(=O)N[C@@H](C)C(N)=O)NC(=O)[C@H](C(C)O)NC(=O)[C@H](C(C)C)NC(=O)[C@H](CC2CCCCC2)NC(=O)[C@H](CCN)NC1=O` (stereo partly drawn) [Compound 2525] ({CH2CO}-QYDWV[Bip]V[Orn][dL][Dab][Cha]V[Thr(3ξ)]CA-NH2; thioether N-14) here?
The IC50 was 17.3 nM.

For `CC(C)C[C@H]1NC(=O)[C@H](CCCN)NC(=O)[C@H](C(C)C)NC(=O)[C@H](Cc2ccc(-c3ccccc3)cc2)NC(=O)[C@H](C(C)C)NC(=O)[C@H](Cc2c[nH]c3ccccc23)NC(=O)[C@H](CC(=O)O)NC(=O)[C@H](Cc2ccc(O)cc2)NC(=O)[C@H](CC#N)NC(=O)CSC[C@@H](C(=O)N[C@@H](C)C(N)=O)NC(=O)[C@H](C(C)O)NC(=O)[C@H](C(C)C)NC(=O)[C@H](CC2CCCCC2)NC(=O)[C@H](CCN)NC1=O` (stereo partly shown) [Compound 2526], which IC50 is on record?
The IC50 was 54.8 nM.

Which IC50 does the source give for `CC(C)C[C@H]1NC(=O)[C@H](CCCN)NC(=O)[C@H](C(C)C)NC(=O)[C@H](Cc2ccc(-c3ccccc3)cc2)NC(=O)[C@H](C(C)C)NC(=O)[C@H](Cc2c[nH]c3ccccc23)NC(=O)[C@H](CC(=O)O)NC(=O)[C@H](Cc2ccc(OCC(=O)O)cc2)NC(=O)[C@H](CCCNC(=N)N)NC(=O)CSC[C@@H](C(=O)N[C@@H](C)C(N)=O)NC(=O)[C@H](C(C)O)NC(=O)[C@H](C(C)C)NC(=O)[C@H](CC2CCCCC2)NC(=O)[C@H](CCN)NC1=O` (stereo partly drawn) [Compound 2530] ({CH2CO}-RY(Carboxymethyl)DWV[Bip]V[Orn][dL][Dab][Cha]V[Thr(3ξ)]CA-NH2; thioether N-14) here?
Its IC50 is 8.5 nM.

With `CCC(C)[C@@H]1NC(=O)[C@H](Cc2ccc(-c3ccccc3)cc2)NC(=O)[C@H](C(C)C)NC(=O)[C@H](Cc2cccc(C)c2)NC(=O)[C@H](CC(=O)O)NC(=O)[C@H](Cc2ccc(OCC(=O)O)cc2)NC(=O)[C@H](CN)NC(=O)CSC[C@@H](C(=O)N[C@@H](C)C(N)=O)NC(=O)[C@H](CO)NC(=O)[C@H](C(C)C)NC(=O)[C@H](CC2CCCCC2)NC(=O)[C@H](CCN)NC(=O)[C@@H](CC(C)C)NC(=O)[C@H](CCCN)NC1=O` (stereo partly shown) [Compound 2533] as the compound, how does the IC50 read?
Its IC50 is 43.7 nM.

`CCC(C)[C@@H]1NC(=O)[C@H](Cc2ccc(-c3ccccc3)cc2)NC(=O)[C@H](C(C)C)NC(=O)[C@H](Cc2cccc(C)c2)NC(=O)[C@H](CC(=O)O)NC(=O)[C@H](Cc2ccc(OCC(=O)O)cc2)NC(=O)[C@H](Cc2ccc(OCC(=O)O)cc2)NC(=O)CSC[C@@H](C(=O)N[C@@H](C)C(N)=O)NC(=O)[C@H](CO)NC(=O)[C@H](C(C)C)NC(=O)[C@H](CC2CCCCC2)NC(=O)[C@H](CCN)NC(=O)[C@@H](CC(C)C)NC(=O)[C@H](CCCN)NC1=O` (stereo partly shown) [Compound 2534] was tested. Which IC50 did it give?
The IC50 was 21.3 nM.

For `CCC(C)[C@@H]1NC(=O)[C@H](Cc2ccc(-c3ccccc3)cc2)NC(=O)[C@H](C(C)C)NC(=O)[C@H](Cc2cccc(C)c2)NC(=O)[C@H](CC(=O)O)NC(=O)[C@H](Cc2ccc(OCC(=O)O)cc2)NC(=O)[C@H](Cc2ccncc2)NC(=O)CSC[C@@H](C(=O)N[C@@H](C)C(N)=O)NC(=O)[C@H](CO)NC(=O)[C@H](C(C)C)NC(=O)[C@H](CC2CCCCC2)NC(=O)[C@H](CCN)NC(=O)[C@@H](CC(C)C)NC(=O)[C@H](CCCN)NC1=O` (stereo partly shown) [Compound 2535], which IC50 is on record?
The IC50 was 38 nM.

With `CC(C)C[C@H]1NC(=O)[C@H](CCCN)NC(=O)[C@H](C(C)C)NC(=O)[C@H](Cc2ccc(-c3ccccc3)cc2)NC(=O)[C@H](C(C)C)NC(=O)[C@H](Cc2c[nH]c3ccccc23)NC(=O)[C@H](CC(=O)O)NC(=O)[C@H](Cc2ccc(O)cc2)NC(=O)[C@H](CC#N)NC(=O)CSC[C@@H](C(=O)N[C@@H](C)C(N)=O)NC(=O)[C@H](C(C)O)NC(=O)[C@H](C(C)C)NC(=O)[C@H](CC2CCCCC2)NC(=O)[C@H](CCN)NC1=O` (stereo partly shown) [Compound 2536] as the compound, how does the IC50 read?
The IC50 was 10.9 nM.

With `Cc1cccc(C[C@@H]2NC(=O)[C@H](CC(=O)O)NC(=O)[C@H](Cc3ccc(OCC(=O)O)cc3)NC(=O)[C@H](CCCC(=O)O)NC(=O)CSC[C@@H](C(=O)N[C@@H](C)C(N)=O)NC(=O)[C@H](CO)NC(=O)[C@H](C(C)C)NC(=O)[C@H](CC3CCCCC3)NC(=O)[C@H](CCN)NC(=O)[C@@H](CC(C)C)NC(=O)[C@H](CCCN)NC(=O)[C@H](C(C)C)NC(=O)[C@H](Cc3ccc(-c4ccccc4)cc3)NC(=O)[C@H](C(C)C)NC2=O)c1` [Compound 2537] ({CH2CO}-[Aad]Y(Carboxymethyl)D[Phe(3-Me)]V[Bip]V[Orn][dL][Dab][Cha]VSCA-NH2; thioether N-14) as the compound, how does the IC50 read?
Its IC50 is 18.3 nM.

`CCC(C)[C@@H]1NC(=O)[C@H](Cc2ccc(-c3ccccc3)cc2)NC(=O)[C@H](C(C)C)NC(=O)[C@H](Cc2cccc(C)c2)NC(=O)[C@H](CC(=O)O)NC(=O)[C@H](Cc2ccc(C(=O)O)cc2)NC(=O)[C@H](CCCNC(=N)N)NC(=O)CSC[C@@H](C(=O)N[C@@H](C)C(N)=O)NC(=O)[C@H](C(C)O)NC(=O)[C@H](C(C)C)NC(=O)[C@H](CC2CCCCC2)NC(=O)[C@H](CCN)NC(=O)[C@@H](CC(C)C)NC(=O)[C@H](CCCN)NC1=O` (stereo partly shown) [Compound 2538] was tested. Which IC50 did it give?
Its IC50 is 9.7 nM.

`CC(C)C[C@H]1NC(=O)[C@H](CCCN)NC(=O)[C@H](CN)NC(=O)[C@H](Cc2ccc(-c3ccccc3)cc2)NC(=O)[C@H](C(C)C)NC(=O)[C@H](Cc2c[nH]c3ccccc23)NC(=O)[C@H](CC(=O)O)NC(=O)[C@H](Cc2ccc(OCC(=O)O)cc2)NC(=O)[C@H](CC#N)NC(=O)CSC[C@@H](C(=O)N[C@@H](C)C(N)=O)NC(=O)[C@H](C(C)O)NC(=O)[C@H](C(C)C)NC(=O)[C@H](CC2CCCCC2)NC(=O)[C@H](CC(N)=O)NC1=O` (stereo partly shown) [Compound 2539] was tested. Which IC50 did it give?
Its IC50 is 103 nM.

With `CC(C)C[C@H]1NC(=O)[C@H](CCCN)NC(=O)[C@H](CN)NC(=O)[C@H](Cc2ccc(-c3ccccc3)cc2)NC(=O)[C@H](C(C)C)NC(=O)[C@H](Cc2c[nH]c3ccccc23)NC(=O)[C@H](CC(=O)O)NC(=O)[C@H](Cc2ccc(C(=O)O)cc2)NC(=O)[C@H](Cc2ccc(OCC(=O)O)cc2)NC(=O)CSC[C@@H](C(=O)N[C@@H](C)C(N)=O)NC(=O)[C@H](CO)NC(=O)[C@H](C(C)C)NC(=O)[C@H](CC2CCCCC2)NC(=O)[C@H](CCN)NC1=O` [Compound 2540] ({CH2CO}-Y(Carboxymethyl)[Phe(4-COOH)]DWV[Bip][Dap][Orn][dL][Dab][Cha]VSCA-NH2; thioether N-14) as the compound, how does the IC50 read?
Its IC50 is 16.1 nM.

How did the IC50 turn out when `CCCCC[C@@H]1NC(=O)[C@H](Cc2ccc(-c3ccccc3)cc2)NC(=O)[C@H](C(C)C)NC(=O)[C@H](Cc2c[nH]c3ccccc23)NC(=O)[C@H](CC(=O)O)NC(=O)[C@H](Cc2ccc(C(=O)O)cc2)NC(=O)[C@H](Cc2ccncc2)NC(=O)CSC[C@@H](C(=O)N[C@@H](CC(N)=O)C(N)=O)NC(=O)[C@H](CO)NC(=O)[C@H](C(C)C)NC(=O)[C@H](CC2CCCCC2)NC(=O)[C@H](CCN)NC(=O)[C@@H](C)NC(=O)[C@H](CCCN)NC1=O` [Compound 2541] ({CH2CO}-[4Pal][Phe(4-COOH)]DWV[Bip][Ahp(2)][Orn][dA][Dab][Cha]VSCN-NH2; thioether N-14) was run?
Its IC50 is 58.4 nM.

`CC(C)C[C@H]1NC(=O)[C@H](CCCN)NC(=O)[C@H](CCCCN)NC(=O)[C@H](Cc2ccc(-c3ccccc3)cc2)NC(=O)[C@H](C(C)C)NC(=O)[C@H](Cc2c[nH]c3ccccc23)NC(=O)[C@H](CC(=O)O)NC(=O)[C@H](Cc2ccncc2)NC(=O)[C@H](CN)NC(=O)CSC[C@@H](C(=O)N[C@@H](CC(N)=O)C(N)=O)NC(=O)[C@H](C(C)O)NC(=O)[C@H](C(C)C)NC(=O)[C@H](CC2CCCCC2)NC(=O)[C@H](CCN)NC1=O` (stereo partly drawn) [Compound 2542] ({CH2CO}-[Dap][4Pal]DWV[Bip]K[Orn][dL][Dab][Cha]V[Thr(3ξ)]CN-NH2; thioether N-14) was tested. Which IC50 did it give?
The IC50 was 20.5 nM.

Which IC50 does the source give for `CC(C)[C@@H]1NC(=O)[C@H](Cc2c[nH]c3ccccc23)NC(=O)[C@H](CC(=O)O)NC(=O)[C@H](Cc2ccncc2)NC(=O)[C@H](CN)NC(=O)CSC[C@@H](C(=O)NCC(N)=O)NC(=O)[C@H](C(C)O)NC(=O)[C@H](C(C)C)NC(=O)[C@H](CC2CCCCC2)NC(=O)[C@H](CCN)NC(=O)[C@@H](C)NC(=O)[C@H](CCCN)NC(=O)[C@H](CCN)NC(=O)[C@H](Cc2ccc(-c3ccccc3)cc2)NC1=O` (stereo partly shown) [Compound 2543] ({CH2CO}-[Dap][4Pal]DWV[Bip][Dab][Orn][dA][Dab][Cha]V[Thr(3ξ)]CG-NH2; thioether N-14) here?
The IC50 was 236 nM.

With `CC(C)[C@@H]1NC(=O)[C@H](Cc2c[nH]c3ccccc23)NC(=O)[C@H](CC(=O)O)NC(=O)[C@H](Cc2ccc(C(=O)O)cc2)NC(=O)[C@H](Cc2ccncc2)NC(=O)CSC[C@@H](C(=O)NCC(N)=O)NC(=O)[C@H](CO)NC(=O)[C@H](C(C)C)NC(=O)[C@H](CC2CCCCC2)NC(=O)[C@H](CCN)NC(=O)[C@@H](C)NC(=O)[C@H](CCCN)NC(=O)[C@H](CCN)NC(=O)[C@H](Cc2ccc(-c3ccccc3)cc2)NC1=O` [Compound 2544] ({CH2CO}-[4Pal][Phe(4-COOH)]DWV[Bip][Dab][Orn][dA][Dab][Cha]VSCG-NH2; thioether N-14) as the compound, how does the IC50 read?
Its IC50 is 80.6 nM.
